Measurements taken from publication PMC3639963, “A New Class of Small Molecule Inhibitor of BMP Signaling” (PLoS ONE, 2013).

Assays:
Assay in all cases: Nanosyn kinase profiling
Format in all cases: biochemical
Conditions in all cases: read-out: Percentage inhibition; for inhibition at 0.1 µM: 0.1 µM inhibitor; for inhibition at 1 µM: 1 µM inhibitor
CHEK1 = target: T1, CHEK1 (Homo sapiens, UniProt O14757)
T1 construct: purchased Nanosyn (enzymatic panel); SGC in-house recombinant human kinases (DSF panel); Invitrogen (ALK1-6)
T1 sequence (O14757 1-476): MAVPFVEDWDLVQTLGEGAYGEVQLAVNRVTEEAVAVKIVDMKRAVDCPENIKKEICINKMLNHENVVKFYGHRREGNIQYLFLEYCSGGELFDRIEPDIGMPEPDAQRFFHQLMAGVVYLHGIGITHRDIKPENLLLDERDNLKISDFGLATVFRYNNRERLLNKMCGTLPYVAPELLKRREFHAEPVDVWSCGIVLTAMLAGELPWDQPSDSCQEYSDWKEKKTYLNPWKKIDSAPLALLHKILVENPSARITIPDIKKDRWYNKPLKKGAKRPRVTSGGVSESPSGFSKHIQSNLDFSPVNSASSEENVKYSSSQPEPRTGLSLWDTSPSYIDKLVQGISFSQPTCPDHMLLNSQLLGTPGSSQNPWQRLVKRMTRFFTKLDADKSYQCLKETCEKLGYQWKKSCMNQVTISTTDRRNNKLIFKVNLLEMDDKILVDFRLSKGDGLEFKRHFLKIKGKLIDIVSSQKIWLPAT
In short: (§1)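 Percent inhibition of each kinase was measured with the inhibitor at 0.1 µM and at 1 µM, as part of a 200-kinase human selectivity panel.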

CAMK4 = target: T2, CAMK4 (Homo sapiens, UniProt Q16566)
T2 construct: purchased Nanosyn (enzymatic panel); SGC in-house recombinant human kinases (DSF panel); Invitrogen (ALK1-6)
T2 sequence (Q16566 1-473): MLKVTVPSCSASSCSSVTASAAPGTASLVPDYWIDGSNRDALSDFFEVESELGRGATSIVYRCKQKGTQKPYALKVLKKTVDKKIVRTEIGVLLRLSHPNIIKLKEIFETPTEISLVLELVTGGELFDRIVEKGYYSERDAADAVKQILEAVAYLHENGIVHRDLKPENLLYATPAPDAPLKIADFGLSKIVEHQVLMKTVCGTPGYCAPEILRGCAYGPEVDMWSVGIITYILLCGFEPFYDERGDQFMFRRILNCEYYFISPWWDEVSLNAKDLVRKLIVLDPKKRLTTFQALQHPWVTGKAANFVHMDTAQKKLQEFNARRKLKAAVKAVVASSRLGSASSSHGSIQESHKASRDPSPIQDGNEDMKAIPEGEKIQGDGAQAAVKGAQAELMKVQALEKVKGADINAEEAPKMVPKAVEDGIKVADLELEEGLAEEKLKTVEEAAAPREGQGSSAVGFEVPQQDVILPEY
In short: as §1

ITK = target: T3, ITK (Homo sapiens, UniProt Q08881)
T3 construct: purchased Nanosyn (enzymatic panel); SGC in-house recombinant human kinases (DSF panel); Invitrogen (ALK1-6)
T3 sequence (Q08881 1-620): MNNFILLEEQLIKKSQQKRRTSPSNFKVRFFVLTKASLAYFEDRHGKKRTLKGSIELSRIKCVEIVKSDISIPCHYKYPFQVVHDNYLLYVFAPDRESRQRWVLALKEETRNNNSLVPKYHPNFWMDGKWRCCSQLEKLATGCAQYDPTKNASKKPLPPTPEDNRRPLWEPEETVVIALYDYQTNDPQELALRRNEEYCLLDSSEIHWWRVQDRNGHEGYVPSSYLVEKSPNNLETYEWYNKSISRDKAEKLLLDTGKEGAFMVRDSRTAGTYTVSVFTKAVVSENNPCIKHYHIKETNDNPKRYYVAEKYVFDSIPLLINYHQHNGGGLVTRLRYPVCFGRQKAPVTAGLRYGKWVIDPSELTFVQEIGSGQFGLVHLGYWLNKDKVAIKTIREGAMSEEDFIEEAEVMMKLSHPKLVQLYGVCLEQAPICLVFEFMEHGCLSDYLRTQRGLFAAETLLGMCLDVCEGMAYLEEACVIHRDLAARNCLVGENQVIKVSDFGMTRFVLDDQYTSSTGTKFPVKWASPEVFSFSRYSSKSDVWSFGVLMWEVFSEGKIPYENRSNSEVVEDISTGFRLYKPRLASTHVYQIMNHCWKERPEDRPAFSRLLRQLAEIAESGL
In short: as §1

MEK1 = target: T4, MEK1 (Homo sapiens, UniProt Q02750)
T4 construct: purchased Nanosyn (enzymatic panel); SGC in-house recombinant human kinases (DSF panel); Invitrogen (ALK1-6)
In short: as §1

AURKB = target: T5, AURKB (Homo sapiens, UniProt Q96GD4)
T5 construct: purchased Nanosyn (enzymatic panel); SGC in-house recombinant human kinases (DSF panel); Invitrogen (ALK1-6)
In short: as §1

PHKγ1 = target: T6, PHKγ1 (Homo sapiens, UniProt Q16816)
T6 construct: purchased Nanosyn (enzymatic panel); SGC in-house recombinant human kinases (DSF panel); Invitrogen (ALK1-6)
In short: as §1

MST1 = target: T7, MST1 (Homo sapiens, UniProt Q13043)
T7 construct: purchased Nanosyn (enzymatic panel); SGC in-house recombinant human kinases (DSF panel); Invitrogen (ALK1-6)
T7 sequence (Q13043 1-487): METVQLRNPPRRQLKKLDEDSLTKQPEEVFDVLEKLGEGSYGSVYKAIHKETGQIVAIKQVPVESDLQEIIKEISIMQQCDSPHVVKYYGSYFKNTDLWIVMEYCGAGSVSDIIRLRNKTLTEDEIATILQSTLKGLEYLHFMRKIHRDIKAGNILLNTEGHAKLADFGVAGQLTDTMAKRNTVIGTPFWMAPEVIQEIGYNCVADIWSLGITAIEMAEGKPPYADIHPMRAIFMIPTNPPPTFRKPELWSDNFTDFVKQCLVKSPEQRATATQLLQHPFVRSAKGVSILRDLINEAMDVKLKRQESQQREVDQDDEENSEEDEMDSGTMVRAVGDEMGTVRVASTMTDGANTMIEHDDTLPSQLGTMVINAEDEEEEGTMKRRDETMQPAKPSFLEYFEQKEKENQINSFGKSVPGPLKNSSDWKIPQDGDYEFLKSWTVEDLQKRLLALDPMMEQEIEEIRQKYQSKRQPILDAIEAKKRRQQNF
In short: as §1

PKCθ = target: T8, PKCθ (Homo sapiens, UniProt Q04759)
T8 construct: purchased Nanosyn (enzymatic panel); SGC in-house recombinant human kinases (DSF panel); Invitrogen (ALK1-6)
In short: as §1

SRMS = target: T9, SRMS (Homo sapiens, UniProt Q9H3Y6)
T9 construct: purchased Nanosyn (enzymatic panel); SGC in-house recombinant human kinases (DSF panel); Invitrogen (ALK1-6)
In short: as §1

T6 sequence (Q16816 whole entry): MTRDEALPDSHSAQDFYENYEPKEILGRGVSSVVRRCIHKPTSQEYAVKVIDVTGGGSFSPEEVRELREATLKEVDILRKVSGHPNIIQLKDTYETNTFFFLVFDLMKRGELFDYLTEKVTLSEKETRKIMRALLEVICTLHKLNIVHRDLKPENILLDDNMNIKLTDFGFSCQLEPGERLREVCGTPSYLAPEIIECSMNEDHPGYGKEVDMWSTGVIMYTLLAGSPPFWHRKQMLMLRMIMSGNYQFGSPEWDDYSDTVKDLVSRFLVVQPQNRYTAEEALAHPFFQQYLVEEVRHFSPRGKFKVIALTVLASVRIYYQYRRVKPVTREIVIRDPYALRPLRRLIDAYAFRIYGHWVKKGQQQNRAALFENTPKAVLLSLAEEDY
T4 sequence (Q02750 whole entry): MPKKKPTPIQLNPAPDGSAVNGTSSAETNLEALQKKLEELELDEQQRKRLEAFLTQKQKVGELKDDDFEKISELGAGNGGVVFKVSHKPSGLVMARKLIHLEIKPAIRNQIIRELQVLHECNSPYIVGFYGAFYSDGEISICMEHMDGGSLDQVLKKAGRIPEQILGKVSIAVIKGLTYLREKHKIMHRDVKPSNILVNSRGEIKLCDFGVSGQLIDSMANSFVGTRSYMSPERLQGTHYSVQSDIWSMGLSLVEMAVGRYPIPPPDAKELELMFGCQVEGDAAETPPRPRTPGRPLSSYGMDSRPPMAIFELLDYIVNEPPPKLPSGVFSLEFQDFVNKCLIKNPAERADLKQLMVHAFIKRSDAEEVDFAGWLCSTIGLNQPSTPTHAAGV
T8 sequence (Q04759 whole entry): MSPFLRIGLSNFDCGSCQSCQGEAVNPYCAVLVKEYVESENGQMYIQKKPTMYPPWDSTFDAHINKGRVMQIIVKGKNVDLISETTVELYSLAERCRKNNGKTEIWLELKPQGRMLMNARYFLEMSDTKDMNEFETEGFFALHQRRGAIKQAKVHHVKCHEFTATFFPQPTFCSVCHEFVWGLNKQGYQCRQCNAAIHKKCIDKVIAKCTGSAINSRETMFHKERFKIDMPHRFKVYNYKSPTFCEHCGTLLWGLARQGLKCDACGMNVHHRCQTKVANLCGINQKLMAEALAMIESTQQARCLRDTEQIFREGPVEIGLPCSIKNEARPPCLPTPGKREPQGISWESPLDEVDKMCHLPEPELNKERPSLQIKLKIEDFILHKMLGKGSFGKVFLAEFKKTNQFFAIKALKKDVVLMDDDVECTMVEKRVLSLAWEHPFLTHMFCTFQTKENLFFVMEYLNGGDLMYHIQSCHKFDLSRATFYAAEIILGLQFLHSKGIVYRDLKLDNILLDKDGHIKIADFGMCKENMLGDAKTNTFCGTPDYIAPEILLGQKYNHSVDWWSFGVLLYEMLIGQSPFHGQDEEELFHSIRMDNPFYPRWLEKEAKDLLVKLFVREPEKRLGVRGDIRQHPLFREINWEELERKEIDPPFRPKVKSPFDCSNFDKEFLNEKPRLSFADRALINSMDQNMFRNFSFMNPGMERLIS
T5 sequence (Q96GD4 whole entry): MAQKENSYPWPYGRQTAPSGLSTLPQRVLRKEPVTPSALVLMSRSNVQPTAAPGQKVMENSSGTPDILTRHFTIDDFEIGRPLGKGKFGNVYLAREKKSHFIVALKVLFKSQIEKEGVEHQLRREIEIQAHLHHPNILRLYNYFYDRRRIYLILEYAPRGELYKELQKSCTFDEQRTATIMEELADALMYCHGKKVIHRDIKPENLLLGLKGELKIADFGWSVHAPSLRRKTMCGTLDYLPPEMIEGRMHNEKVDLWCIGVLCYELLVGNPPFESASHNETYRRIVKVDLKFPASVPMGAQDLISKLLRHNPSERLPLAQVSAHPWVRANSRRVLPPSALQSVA
T9 sequence (Q9H3Y6 whole entry): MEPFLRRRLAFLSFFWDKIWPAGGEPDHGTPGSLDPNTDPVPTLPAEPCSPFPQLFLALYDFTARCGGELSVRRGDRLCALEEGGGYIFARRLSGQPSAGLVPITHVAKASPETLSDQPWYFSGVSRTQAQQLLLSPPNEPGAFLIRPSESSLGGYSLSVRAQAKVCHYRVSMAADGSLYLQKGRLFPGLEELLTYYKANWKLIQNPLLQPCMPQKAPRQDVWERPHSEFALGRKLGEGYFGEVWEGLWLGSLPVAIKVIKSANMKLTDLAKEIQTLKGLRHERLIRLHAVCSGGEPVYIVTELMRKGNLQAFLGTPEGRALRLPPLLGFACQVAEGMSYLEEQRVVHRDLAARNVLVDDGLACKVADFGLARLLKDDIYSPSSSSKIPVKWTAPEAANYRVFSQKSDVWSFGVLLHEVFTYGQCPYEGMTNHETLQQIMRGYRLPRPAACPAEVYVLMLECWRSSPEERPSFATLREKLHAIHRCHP

Row | SMILES | inhibition at 0.1 µM (CHEK1) [%] | inhibition at 1 µM (CHEK1) [%] | inhibition at 0.1 µM (CAMK4) [%] | inhibition at 1 µM (CAMK4) [%] | inhibition at 0.1 µM (ITK) [%] | inhibition at 1 µM (ITK) [%] | inhibition at 0.1 µM (MEK1) [%] | inhibition at 1 µM (MEK1) [%] | inhibition at 0.1 µM (AURKB) [%] | inhibition at 1 µM (AURKB) [%] | inhibition at 0.1 µM (PHKγ1) [%] | inhibition at 1 µM (PHKγ1) [%] | inhibition at 0.1 µM (MST1) [%] | inhibition at 1 µM (MST1) [%] | inhibition at 0.1 µM (PKCθ) [%] | inhibition at 1 µM (PKCθ) [%] | inhibition at 0.1 µM (SRMS) [%] | inhibition at 1 µM (SRMS) [%]
1 | COc1cc(-c2cc(-c3cccc(O)c3)cnc2N)cc(OC)c1OC [K02288, 3-[6-amino-5-(3,4,5-trimethoxy-phenyl)-pyridin-3-yl]-phenol] | -1 | -2 | -1 | -1 | 0 | 0 | -1 | 10 | 0.3 | 1.5 | 1.8 | 4.4 | -1 | 1.1 | 0 | 0.1 | 0.8 | 17
2 | c1ccc2c(-c3cnn4cc(-c5ccc(N6CCNCC6)cc5)cnc34)ccnc2c1 [LDN-193189] | 2.9 | 0.3 | 0.1 | 0 | 0.9 | 3.6 | 1.4 | 1 | 2.3 | 15 | 5.2 | 27 | 4 | 7.9 | 1.4 | 1.3 | -1 | 8.9
